Converted amounts (≈) assume the structure as drawn.
Tested on: KB
Assay: Cytotoxicity against human KB cells
Format: functional
Conditions: read-out: ED50 (the source's name)

COc1cc2c(cc1OC)-c1cc(OC)c(OC)c(OC)c1C[C@H]1C(=O)OC[C@@H]1C2 [NEOISOSTEGANE]
EC50: 6.6 µg/mL (≈ 15.9 µM)
